Measurements taken from patent US9326506B2, “Preparation method, agricultural composition and applications of natural brassinolide analogs” (CHENGDU NEWSUN CROPSCIENCE CO., LTD, priority 2012, dated 2016).

Tested on: rice
Assay: Rice leaf bending assay (leaf inclination angle)
Type: in vivo
Details: for Average angle / Total angle: 48 hr; for Total angle: sum of 20 rice; for Effects on leaf inclination compared among analogues: in the case of high concentrations
From the text: According to a rice leaf bending assay, we measured leaf inclination angle of rice to determine effects of the natural brassinolide analogues on the enhancement of plant development. The larger the leaf inclination angle of rice, the more effects on plant development. The detailed assay procedure is as follows:
The natural brassinolide analogues, BR1, BR2, BR3, BR4, BR5 and BR6, used herein, were those prepared by the method of Example 1. And BR1, BR2, BR3, BR4, BR5 and BR6 were mixed into a mixture of brassinolide analogues (referred to as “BRs”, in which the weight ratio of BR1:BR2:BR3:BR4:BR5:BR6 is 0.4:0.4:0.4:0.4:0.4:98). Respectively the analogues and the mixture were dissolved into 95% (V/V) ethanol solution, and then diluted with pure water to 1 mg/L, 0.1 mg/L, 0.01 mg/L, 0.001 mg/L and 0.0001 mg/L. In addition, pure water was used as a control.
After rice seeds were disinfected by using 5% sodium hypochlorite solution treatment, they were rinsed with distilled water until their pH>7, placed into a petri dish in a dark incubator, and cultured by using water at 30° C.±2° C. for 9 days. Then the nine-day-old etiolated seedlings of rice were cut around the center of the base of second leaf to segments with 1 cm leaf and 1 cm leaf sheath. The leaf segments were floated in distilled water, placed in a dark incubator, cultured at 30° C.±2° C. for 24 hr, and then dried by a filter paper. The dried leaf segments were respectively immersed in the above solutions containing different concentrations of the natural brassinolide analogues or pure water, and cultured in a dark incubator at 30° C.±2° C. for 48 hr. Every solution or pure water contained the leaf segments from 20 rice. Then the inclination angle between the second leaf and the leaf sheath of the leaf segments was measured by a protractor.

Structure (SMILES) | Average angle (0.0001 mg/l) | Total angle (0.0001 mg/l) | Average angle (0.001 mg/l) | Total angle (0.001 mg/l) | Average angle (0.01 mg/l) | Total angle (0.01 mg/l) | Average angle (0.1 mg/l) | Total angle (0.1 mg/l) | Average angle (1 mg/l) | Total angle (1 mg/l) | Effects on leaf inclination compared among analogues
CC(C)[C@H](C)[C@@H](O)[C@H](O)[C@@H](C)[C@H]1CCC2C3COC(=O)C4C[C@H](O)[C@H](O)C[C@]4(C)C3CC[C@@]21C (stereo partly drawn) [BR1] | 5.34 degree | 106.8 degree | 11.27 degree | 225.4 degree | 21.05 degree | 421 degree | 36.25 degree | 725 degree | 110.75 degree | 2215 degree | more than those of BR2, BR3 and BR4
CC[C@@H](C(C)C)[C@@H](O)[C@H](O)[C@@H](C)[C@H]1CCC2C3COC(=O)C4C[C@H](O)[C@H](O)C[C@]4(C)C3CC[C@@]21C (stereo partly drawn) [BR2] | 4.025 degree | 80.5 degree | 7.28 degree | 145.6 degree | 13.25 degree | 265 degree | 21.15 degree | 423 degree | 71.25 degree | 1425 degree | 
C=C(C(C)C)[C@@H](O)[C@H](O)[C@@H](C)[C@H]1CCC2C3COC(=O)C4C[C@H](O)[C@H](O)C[C@]4(C)C3CC[C@@]21C (stereo partly drawn) [BR3] | 3.84 degree | 76.8 degree | 6.8 degree | 136 degree | 12.15 degree | 243 degree | 21 degree | 420 degree | 65.3 degree | 1306 degree | 
CC(C)[C@H](C)[C@@H](O)[C@H](O)[C@@H](C)[C@H]1CCC2C3CC(=O)C4C[C@H](O)CC[C@]4(C)C3CC[C@@]21C (stereo partly drawn) [BR4] | 3.8 degree | 76 degree | 6.5 degree | 130 degree | 12.25 degree | 245 degree | 21.4 degree | 428 degree | 64 degree | 1280 degree | 
CC(C)C[C@@H](O)[C@H](O)[C@@H](C)[C@H]1CCC2C3CC(=O)C4C[C@H](O)[C@H](O)C[C@]4(C)C3CC[C@@]21C (stereo partly drawn) [BR5] | 3.9 degree | 78 degree | 9.3 degree | 186 degree | 20.05 degree | 401 degree | 35 degree | 700 degree | 110 degree | 2200 degree | more than those of BR2, BR3 and BR4
CC(C)(O)CC[C@@H](O)[C@](C)(O)[C@H]1CC[C@@]2(O)[C@@H]3CC(=O)[C@@H]4C[C@@H](O)[C@@H](O)C[C@]4(C)[C@H]3CC[C@]12C [BR6] | 4.25 degree | 85 degree | 7.1 degree | 142 degree | 23 degree | 460 degree | 35.5 degree | 710 degree | 109 degree | 2180 degree | more than those of BR2, BR3 and BR4
